Reference: patent publication US20060287233A1, “Method of use of antagonists of zonulin to prevent the loss of or to regenerate pancreatic cells” (priority 2005, published 2006)
Entries after “also recorded” stand apart in the source; their conditions may differ. Ends that are not written are not given here.

Experiments:
rabbit ileum = experiment: Tissue resistance (Rt) of rabbit ileum mounted in Ussing chambers
Experimental: Next, rabbit ileum mounted in Ussing chambers as described below, were exposed to 100 μg of FZI/O (SEQ ID NO:15), 100 μg of FZI/1 (SEQ ID NO:29), 1.0 μg of 6×His-ZOT (obtained as described in Example 1 of U.S. patent application Ser. No. 09/127,815, filed Aug. 3, 1998), 1.0 μg of zonulini (obtained as described in Example 3 of U.S. patent application Ser. No. 09/127,815, filed Aug. 3, 1998), or 1.0 μg of zonulinh (obtained as described in Example 3 of U.S. patent application Ser. No. 09/127,815, filed Aug. 3, 1998), alone; or pre-exposed for 20 min to 100 μg of FZI/O or FZI/1, at which time 1.0 μg of 6×His-ZOT, 1.0 μg of zonulini, or 1.0 μg of zonulinh was added. ΔRt was then calculated as Rt=PD/Isc where PD=potential difference and Isc=short circuit current.

BBDP rats = experiment: Treatment of autoimmune diabetes in BBDP rats, therapy initiated after seroconversion; type: in vivo, rat
Experimental: A test group of 52-54 day old diabetes-prone rats were treated with a zonulin antagonist peptide AT1001 (SEQ ID NO:15) while an age matched control group was not treated. The antagonist was administered at this time because at 40 days these rats show an increase in zonulin levels and at 50 days autoimmune antibodies can be detected. Thus, treatment was started after […].
BBDP animals age 52-54 were days divided in two groups. Group 1 (n=20) received AT-1001 daily in drinking water+HCO3. Group 2 (n=10) received drinking water+HCO3. Animals were randomized to receive either placebo or treatment with the synthetic zonulin peptide inhibitor AT-1001 (SEQ ID:15) in their water supply in a blinded fashion during treatment arm T0. At the disease endpoint (fasting blood glucose>250 mg/dl), BBDP rats that developed T1D (60% incidence in placebo group, average age 110 days) were euthanized and blood and tissue samples collected. […] Serum zonulin and autoantibody levels were monitored at the beginning of the study and at its endpoint. Water intake was monitored daily, while weight gain and serum glucose levels were checked weekly. Rats with fasting blood glucose ≧250 mg/dl were considered diabetic and were sacrificed within 24 hours of reaching the diabetic status.

[1] = system: pancreatic islets of BBDP rats; experiment: Histology and immunohistology of pancreata of BBDP rats; type: in vivo, rat; details: treated rats that did not develop T1D; listed as AT1001
Experimental: Samples of the pancreas were taken from animals that had been treated starting at day […] and examined. The results of the histological examination are shown in FIG. 9 and the results of the immunohistological examination are shown in FIG. 10.
To verify the identities of the cells observed in the histological analysis, immunohistological examination was conducted. Pancreata were sequentially stained with either anti-glucagon antibody, which is specific for glucon-producing […], or with anti-insulin antibodies, which is specific for insulin-producing β-cells. When untreated pancreas is stained with anti-insulin antibodies, no signal is detected. This is consistent with the destruction of β-cells in T1D. Staining of these cells with anti-glucagon antibodies identifies glucagon producing […]. Normal islets have a loaf-shaped structure with the outside of the islet containing […] and the inside of the islet containing β-cells. […] The structure of the islets was more normal as indicated by the staining pattern with anti-glucagon antibodies FIG. 10D.

BB/Wor rats = experiment: Prevention of diabetes in BB/Wor rats, antagonist in drinking water; type: in vivo, rat; details: 10 μg/ml in drinking water, n=5
Experimental: Both groups were maintained on a standard diet of rat chow (Harlan Teklab Diet #7012). All food and water were previously autoclaved. Each day, daily water intake was measured and 100 ml of fresh water was given. The treated group received 10 μg/ml of the zonulin peptide antagonist (SEQ ID NO: 15) supplemented in the drinking water. The rats were housed in hepa-filter cages.
Diabetes in the rats was diagnosed as follows: The rats were weighed twice a week. Blood glucose was determined weekly using the OneTouch® glucose monitoring system (Johnson & Johnson). Each week, reagent strips for urinalysis were used to monitor glucose (Diastix®) and ketones (Ketositx®) (Bayer). Rats with a blood glucose >250 mg/dl were fasted overnight, and blood glucose levels >200 mg/dl were considered diabetic.
Following clinical presentation of diabetes, the rats were sacrificed as follows: the rats were anesthesized using ketamine anesthesia and a midline incision was made allowing access to the heart. An 18 G needle was placed into the heart and death occurred by exsanguinations. Then, zonulin assays were conducted as described above. […] According to Biomedical Research Models, Inc., 80% of diabetes prone rats present with diabetes by age 80 days.

For “FZI/1: second synthetic peptide: Gly in position 8, Val in position 12, Gln in position 13 changed to residues of zonulinb (Val, Gly, Arg) (VGVLGRPG; sythetic peptide) [reference compound]”, the “inhibitory effect on the Rt change induced by ZOT, zonulini and zonulinh” value (rabbit ileum; pre-exposure for 20 min to 100 μg peptide) was “completely ablated”.

With “GGVLVQPG [FZI/O, synthetic octapeptide corresponding to amino acid residues 8-15 of human fetal zonulin]” the “animals that developed diabetes under continued treatment” value (BBDP rats; continued treatment after 120 days, arm T1) was “none”, the “anti-glutamic acid decarboxylase (GAD) antibodies” value (BBDP rats; following treatment) was “significant reduction” and the “average age of onset of T1D” value (BBDP rats; treated group) was 86.0 ± 10.3 days. The “animals that progressed to T1D” value (BBDP rats; treatment arm T0, in drinking water from age 52-54 days) was 35%, the “rats that developed diabetes” value (BBDP rats; treatment arm T0, treated group n=20) was 7 of 20 and the “progression to T1D” value (BBDP rats; up to age 205 days (150 days post-treatment)) was “significantly reduced”. The “animals that developed diabetes after treatment was withdrawn (fraction)” value (BBDP rats; withdrawal after 120 days) was “⅓”, the “onset of T1D after withdrawal of treatment” value (BBDP rats; withdrawal at age 120 days, arm T1) was 33% and the “pancreas histology (haematoxylin and eosin)” value [1] was “evidence of the regeneration of β-cells was observed; also recorded: either normal islet histology or islet showing signs of recovery from insulitis; also recorded: perivascular inflammation without insulitis”. For the same substance, the “pancreatic islet immunohistology (insulin and glucagon staining)” value [1] was “preserved islets with detectable insulin-producing beta cells; also recorded: islets that were either undamaged (C and D) or showed signs of recovery from an insulitis insult”, the “rats that developed diabetes by age 80 days” value (BB/Wor rats) was 40% and the “treated rats that did not develop diabetes” value (BB/Wor rats) was 60%. The “change in Rt as compared to the negative control” value (rabbit ileum; 100 μg peptide alone) was 0.5%, the “decrease of the effect of ZOT on Rt” value (rabbit ileum; pre-treatment for 20 min with 100 μg peptide, then 1.0 μg 6×His-ZOT) was 75% and the “decrease of the effect of zonulinh on Rt” value (rabbit ileum; pre-treatment for 20 min with 100 μg peptide, then 1.0 μg zonulinh) was 100%. For the same substance, the “decrease of the effect of zonulini on Rt” value (rabbit ileum; pre-treatment for 20 min with 100 μg peptide, then 1.0 μg zonulini) was 97%.
